Reference: patent publication US7018648B2, “Transdermal device for administering testosterone or one of the derivatives thereof” (Pierre Fabre Medicament, priority 1999, dated 2006)

Key:
[1] = Ex vivo permeation on animal skin after pretreatment with promoter compound (permeation index vs blank reference product); type: in vitro ADME; conditions: for Permeation index: ratio of cumulative amount of testosterone at 24 hours after skin pretreatment with the compound relative to blank, 1 = no promoting effect
Excerpt: FIG. 1 represents the permeation indices (PIs), also known as the “enhancement factors” for comparing in vitro the promoting effect of different products.
This is the product sold by the company Alza under the brand name Testoderm CIII®. This matrix transdermal device for scrotal application is free of promoters and, consequently, is more particularly suitable for performing in vitro protocols intended to select the best permeation promoters of this active principle.
As regards the second category of products, it is more particularly advantageous to check their permeation-promoting effect with respect to the active principle according to the invention. Ex vivo studies of permeation on animal skin are carried out using a reference product whose kinetics constitute a “blank”, and then after initial pretreatment of the skin with the promoter compound. The ratio of the cumulative amount at 24 hours of the test relative to the “blank” gives the permeation index “PI” factor or “enhancement factor”. A permeation index of close to 1 means that the test product has no promoting effect for the active principle under consideration and under the operating conditions used. A classification is then possible according to the indications of table II below.

[2] = Solubility at saturation of testosterone in solvents/excipients; type: physicochemical
Procedure: Studies for selecting the components of the adhesive matrix other than the actual adhesive are useful and involve solubility and in vitro permeation tests. To evaluate the solubilizing power of different components, solubility studies at saturation are performed.

## CCN(CC)C(=O)c1cccc(C)c1 [DEET, N,N-diethyl-m-toluamide]
[1]; in words
  testosterone permeation-promoting effect: lacks any testosterone-promoting effect

## CCCCCCCCCCCCN1CCCC1=O [Laurylpyrrolidone]
[1]
  Permeation index: 11.27

## C[C@]12CCC(=O)C=C1CC[C@@H]1[C@@H]2CC[C@]2(C)C(O)CC[C@@H]12 (some centres unmarked) [testosterone, 17-hydroxyandrost-4-en-3-one]
[2]; in Cyclohexane
  Solubility at saturation of testosterone: 0.06 % m/m
[2]; in Ethanol
  Solubility at saturation of testosterone: 22.12 % m/m
[2]; in Ethyl acetate
  Solubility at saturation of testosterone: 4.45 % m/m
[2]; in Isopropanol
  Solubility at saturation of testosterone: 12.80 % m/m
[2]; in Laurylpyrrolidone
  Solubility at saturation of testosterone: 15.90 % m/m
[2]; in Lysophosphatidylcholine
  Solubility at saturation of testosterone: 6.96 % m/m
[2]; in Methyl laurate
  Solubility at saturation of testosterone: 1.43 % m/m
[2]; in Polysorbate 80
  Solubility at saturation of testosterone: 2.62 % m/m
[2]; in Sorbitan laurate
  Solubility at saturation of testosterone: 4.12 % m/m
[2]; in Tetrahydrofuran
  Solubility at saturation of testosterone: 27.01 % m/m

## Lysophosphatidylchloline
[1]
  Permeation index: 9.18

## Sorbitan laurate
[1]
  Permeation index: 11.70
